Here are results for 23 compounds from patent US9815850B2, “Compounds, compositions and methods” (Denali Therapeutics Inc., priority 2016, dated 2017).

As a reminder, the IC50 is the midpoint of a concentration-inhibition curve.

GST-hRIPK1 (8-327), sequence (Q13546 8-327): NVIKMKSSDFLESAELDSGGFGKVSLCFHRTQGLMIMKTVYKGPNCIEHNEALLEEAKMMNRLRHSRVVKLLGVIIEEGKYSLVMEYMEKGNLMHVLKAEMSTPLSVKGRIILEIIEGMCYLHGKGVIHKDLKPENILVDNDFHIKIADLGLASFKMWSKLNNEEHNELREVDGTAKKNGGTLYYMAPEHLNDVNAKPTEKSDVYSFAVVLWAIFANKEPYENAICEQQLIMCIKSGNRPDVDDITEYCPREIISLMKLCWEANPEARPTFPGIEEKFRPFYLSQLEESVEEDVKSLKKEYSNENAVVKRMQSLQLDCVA

The assay deals with GST-hRIPK1 (8-327) (Homo sapiens (Human), UniProt Q13546). Briefly: Fluorescent Polarization Binding (FP Binding) assay. Particulars: 10 nM GST-hRIPK1 (8-327), 5 nM fluorescent labeled ligand; read-out: FP IC50. How it is done:
Fluorescent Polarization Binding (FP Binding) assay (Berger S. B. et al. […] Maki J. L. et al. […] Test Compounds were serially diluted in DMSO at 100 fold final concentrations in the assay (1% DMSO final). […] For negative control the enzyme addition was replaced by assay buffer only. After addition of 5 μL of fluorescent labeled ligand at twice the final concentrations in assay buffer, the plate was incubated at RT for 30 min.
With `CN1C(=O)[C@@H](NC(=O)c2cc(Cc3ccccc3)[nH]n2)[C@H]2C[C@H]2c2cccnc21` [Example 80A, 5-benzyl-N-((1aS,2S,8bR)-4-methyl-3-oxo-1,1a,2,3,4,8b-hexahydrocyclopropa[d]pyrido[2,3-b]azepin-2-yl)-1H-pyrazole-3-carboxamide], the half-maximal inhibitory concentration (IC50) was in the range of 0.0001 to 1 µM. As for `CN1C(=O)[C@H](NC(=O)c2cc(Cc3ccccc3)[nH]n2)[C@@H]2C[C@@H]2c2cccnc21` [Example 80B, 5-benzyl-N-((1aR,2R,8bS)-4-methyl-3-oxo-1,1a,2,3,4,8b-hexahydrocyclopropa[d]pyrido[2,3-b]azepin-2-yl)-1H-pyrazole-3-carboxamide], the half-inhibitory concentration (IC50) is above 3 µM. Consider `CN1C(=O)[C@@H](NC(=O)c2cc(Cc3ccccc3)on2)[C@H]2C[C@H]2c2cccnc21` [Example 81A, 5-benzyl-N-((1aS,2S,8bR)-4-methyl-3-oxo-1,1a,2,3,4,8b-hexahydrocyclopropa[d]pyrido[2,3-b]azepin-2-yl)isoxazole-3-carboxamide], for which the IC50 fell in the range of 0.0001 to 1 µM. On to `CN1C(=O)[C@H](NC(=O)c2cc(Cc3ccccc3)on2)[C@@H]2C[C@@H]2c2cccnc21` [Example 81B, 5-benzyl-N-((1aR,2R,8bS)-4-methyl-3-oxo-1,1a,2,3,4,8b-hexahydrocyclopropa[d]pyrido[2,3-b]azepin-2-yl)isoxazole-3-carboxamide], for which the concentration for half-maximal inhibition (IC50) was above 3 µM. The result for `CN1C(=O)[C@@H](NC(=O)c2nn(Cc3ccccc3)cc2F)[C@H]2C[C@H]2c2cccnc21` [Example 82A, 1-benzyl-4-fluoro-N-((1aS,2S,8bR)-4-methyl-3-oxo-1,1a,2,3,4,8b-hexahydrocyclopropa[d]pyrido[2,3-b]azepin-2-yl)-1H-pyrazole-3-carboxamide] reads 0.0001 to 1 µM; that for `CN1C(=O)[C@H](NC(=O)c2nn(Cc3ccccc3)cc2F)[C@@H]2C[C@@H]2c2cccnc21` [Example 82B, 1-benzyl-4-fluoro-N-((1aR,2R,8bS)-4-methyl-3-oxo-1,1a,2,3,4,8b-hexahydrocyclopropa[d]pyrido[2,3-b]azepin-2-yl)-1H-pyrazole-3-carboxamide], above 3 µM. For the compound `O=C(N[C@H]1C(=O)Nc2c(F)cc(F)cc2[C@H]2C[C@H]21)c1nnc(Cc2ccccc2)[nH]1` [Example 83B, 5-benzyl-N-((1aR,2R,8bS)-5,7-difluoro-3-oxo-1,1a,2,3,4,8b-hexahydrobenzo[b]cyclopropa[d]azepin-2-yl)-4H-1,2,4-triazole-3-carboxamide], the IC50 lay within 1 to 10 µM. The result for `CN1C(=O)[C@@H](NC(=O)c2nc3cccc(-c4ccccc4)c3s2)COc2ccccc21` [Example 84, (S)—N-(5-methyl-4-oxo-2,3,4,5-tetrahydrobenzo[b][1,4]oxazepin-3-yl)-7-phenylbenzo[d]thiazole-2-carboxamide] reads 0.0001 to 1 µM.

Regarding `CN1C(=O)[C@@H](NC(=O)c2nnc(Cc3ccccc3)s2)COc2cccnc21` [Example 85, (S)-5-benzyl-N-(5-methyl-4-oxo-2,3,4,5-tetrahydropyrido[3,2-b][1,4]oxazepin-3-yl)-1,3,4-thiadiazole-2-carboxamide], the IC50 is 0.0001 to 1 µM.

In the case of `CN1C(=O)[C@@H](NC(=O)c2ncc(Cc3ccccc3)s2)COc2cccnc21` [Example 86, (S)-5-benzyl-N-(5-methyl-4-oxo-2,3,4,5-tetrahydropyrido[3,2-b][1,4]oxazepin-3-yl)thiazole-2-carboxamide], the IC50 was in the range of 0.0001 to 1 µM. For the compound `CN1C(=O)[C@@H](NC(=O)c2cn(C3(c4ccccc4)CC3)nn2)COc2ccccc21` [Example 87, (S)—N-(5-methyl-4-oxo-2,3,4,5-tetrahydrobenzo[b][1,4]oxazepin-3-yl)-1-(1-phenylcyclopropyl)-1H-1,2,3-triazole-4-carboxamide], the concentration for half-maximal inhibition (IC50) lay within 0.0001 to 1 µM.

As for `CN1C(=O)[C@@H](NC(=O)c2cnc(C3(c4ccccc4)CC3)[nH]2)COc2ccccc21` [Example 88, (S)—N-(5-methyl-4-oxo-2,3,4,5-tetrahydrobenzo[b][1,4]oxazepin-3-yl)-2-(1-phenylcyclopropyl)-1H-imidazole-5-carboxamide], the 50% inhibitory concentration (IC50) was above 3 µM. On to `O=C(N[C@H]1C(=O)Nc2c(F)cc(F)cc2[C@H]2C[C@H]21)c1nnc(Cc2ccccc2)o1` [Example 89A, 5-benzyl-N-((1aR,2R,8bS)-5,7-difluoro-3-oxo-1,1a,2,3,4,8b-hexahydrobenzo[b]cyclopropa[d]azepin-2-yl)-1,3,4-oxadiazole-2-carboxamide], for which the IC50 was in the range of 1 to 10 µM. On to `O=C(N[C@@H]1C(=O)Nc2c(F)cc(F)cc2[C@@H]2C[C@H]12)c1nnc(Cc2ccccc2)o1` [Example 89B, 5-benzyl-N-((1aS,2S,8bR)-5,7-difluoro-3-oxo-1,1a,2,3,4,8b-hexahydrobenzo[b]cyclopropa[d]azepin-2-yl)-1,3,4-oxadiazole-2-carboxamide], for which the half-maximal inhibitory concentration (IC50) lay in the range of 0.0001 to 1 µM. Take `O=C(N[C@H]1C(=O)Nc2c(F)cc(F)cc2[C@H]2C[C@H]21)c1cn(Cc2ccccc2)nn1` [Example 90A, 1-benzyl-N-((1aR,2R,8bS)-5,7-difluoro-3-oxo-1,1a,2,3,4,8b-hexahydrobenzo[b]cyclopropa[d]azepin-2-yl)-1H-1,2,3-triazole-4-carboxamide]: the half-maximal inhibitory concentration (IC50) was in the range of 1 to 10 µM. The result for `O=C(N[C@@H]1C(=O)Nc2c(F)cc(F)cc2[C@@H]2C[C@H]12)c1cn(Cc2ccccc2)nn1` [Example 90B, 1-benzyl-N-((1aS,2S,8bR)-5,7-difluoro-3-oxo-1,1a,2,3,4,8b-hexahydrobenzo[b]cyclopropa[d]azepin-2-yl)-1H-1,2,3-triazole-4-carboxamide] reads 0.0001 to 1 µM; that for `O=C(N[C@H]1COc2cccnc2NC1=O)c1cc(C2(c3ccccc3)CC2)[nH]n1` [Example 91, (S)—N-(4-oxo-2,3,4,5-tetrahydropyrido[3,2-b][1,4]oxazepin-3-yl)-5-(1-phenylcyclopropyl)-1H-pyrazole-3-carboxamide], 0.0001 to 1 µM. As to `[2H]C([2H])([2H])N1C(=O)[C@@H](NC(=O)c2cc(C3(n4nccn4)CC3)on2)CCc2cccnc21` [Example 207], the IC50 was above 3 µM.

With `Cc1nc(C(=O)N[C@@H]2C(=O)N(C)c3nccnc3[C@@H]3C[C@H]23)cn1Cc1ccccc1` [Example 208], the IC50 was 0.0001 to 1 µM. Consider `CN1C(=O)[C@@H](NC(=O)c2nn(Cc3cocn3)cc2F)COc2cccnc21` [Example 209, (S)-4-fluoro-N-(5-methyl-4-oxo-2,3,4,5-tetrahydropyrido[3,2-b][1,4]oxazepin-3-yl)-1-(oxazol-4-ylmethyl)-1H-pyrazole-3-carboxamide], for which the half-maximal inhibitory concentration (IC50) fell in the range of 0.0001 to 1 µM. For the compound `CN1C(=O)[C@@H](NC(=O)c2ncc(Cc3ccccn3)s2)COc2cccnc21` [Example 213, (S)—N-(5-methyl-4-oxo-2,3,4,5-tetrahydropyrido[3,2-b][1,4]oxazepin-3-yl)-5-(pyridin-2-ylmethyl)thiazole-2-carboxamide], the IC50 lay in the range of 0.0001 to 1 µM. Regarding `CN1C(=O)[C@@H](NC(=O)c2nn(Cc3ccc(F)cn3)cc2F)COc2ccccc21` [Example 214, (S)-4-fluoro-1-((5-fluoropyridin-2-yl)methyl)-N-(5-methyl-4-oxo-2,3,4,5-tetrahydrobenzo[b][1,4]oxazepin-3-yl)-1H-pyrazole-3-carboxamide], the IC50 fell in the range of 0.0001 to 1 µM. Under `CN1C(=O)[C@@H](NC(=O)c2noc(Cc3ccccc3)n2)COc2cccnc21` [Example 215, (S)-5-benzyl-N-(5-methyl-4-oxo-2,3,4,5-tetrahydropyrido[3,2-b][1,4]oxazepin-3-yl)-1,2,4-oxadiazole-3-carboxamide] stands 0.0001 to 1 µM.
